Experiments:
[1] = tested on: SKCO1 cells; test: Flow cytometric analysis of apoptosis in SKCO1 cells; assay type: cell-based, human; details: FLVCR1a-silenced vs scramble shRNA, synchronized SKCO1 cells
Description: (A) Proliferation of Caco2 cells assessed by crystal violet staining at the indicated days; bar=1000 μm. […] Staining quantification is reported in the bar graph as percentage of crystal violet stained area. Data represent mean±SEM, n=4. For statistical analyses, a two-way analysis of variance was used, followed by the Bonferroni correction for multiple group comparisons; *=p<0.05, ***=p<0.001. (B) Caco2 cells viability the day of plating (day 0) and three days after plaiting (day 3). The measure is considered a readout of cell proliferation. […] Data represent mean±SEM, n=3 wells. For statistical analyses, a two-way analysis of variance was used, followed by the Bonferroni correction for multiple group comparisons; *=p<0.05, **=p<0.01. (C, D, E) Representative flow cytometric analyses of apoptosis in synchronized Caco2 (C), SKCO1 (D) and C80 (E) cells. […] Data represent mean±SEM, n=4 wells pooled from two independent experiments. For statistical analyses, an unpaired Student's t-test was used; *=p<0.05, **=p<0.01. […]
Stained cells were analyzed using a FACSCanto II cytofluorimeter and processed with BD FACSDIVA Software v8.1 (BD Biosciences, Milan, IT; http://www.bdbiosciences.com/instruments/software/facsdiva/index.jsp/ RRID:SCR_001456), acquiring at least 10,000 events per sample or 25,000 cells per sample for cell cycle experiments.

[2] = tested on: Caco2 cells; test: TCA cycle enzymes activities in Caco2 cells; assay type: cell-based, human; details: FLVCR1a knockdown vs scramble shRNA Caco2 cells
Description: TCA cycle flux is reported in the centre of the figure and expressed as pmol CO2/h/mg protein. Data represent mean±SEM, n=3. For statistical analyses, an unpaired Student's t-test was used. **=p<0.01. Moreover, TCA cycle enzymes activities are reported in boxes and expressed as mU/mg mitochondrial proteins. Data represent mean±SEM, n=3. For statistical analyses, an unpaired Student's t-test was used; *=p<0.05, ***=p<0.001. […] Results are expressed as pmol CO2/h/mg protein. Data represent mean±SEM, n=3. For statistical analyses, an unpaired Student's t-test was used; *=p<0.05, **=p<0.01. […]
The enzymatic activities of citrate synthase, α-ketoglutarate dehydrogenase, succinate dehydrogenase and malate dehydrogenase were measured on 10 μg mitochondrial proteins using the Citrate Synthase Assay Kit (Sigma Aldrich, St. Louis, MO USA, catalog n° MAK193), Alpha Ketoglutarate (alpha KG) Assay Kit (Abcam, Cambridge, UK, catalog n° ab83431), Malate Dehydrogenase Assay Kit (Sigma Aldrich, St. Louis, MO USA, catalog n° MAK196), Succinate Dehydrogenase Activity Colorimetric Assay Kit (BioVision, Milpitas, CA USA, catalog n° K660), as per manufacturer's instructions. Results were expressed as mU/mg mitochondrial proteins.

FLVCR1a shRNA: shRNA specifically down-regulating FLVCR1a without targeting FLVCR1b; pLKO.1 lentiviral clone TRCN0000059599, antisense SEQ ID No.: 2 (antisense TTGCTAATGATGCTGTACTGG; sense CCAGTACAGCATCATTAGCAA)
apoptosis [1]: increased apoptosis | TCA cycle enzymes activity (citrate synthase, α-ketoglutarate dehydrogenase, succinate dehydrogenase, malate dehydrogenase) [2]: enhanced activity

Source: patent publication US20240285670A1, “THERAPEUTIC TREATMENT OF TUMORS BY BLOCKING THE HEME SYNTHESIS-EXPORT AXIS” (Università degli Studi di Torino, priority 2021, published 2024)
